One experiment addresses T1, Estrogen receptor (Homo sapiens, UniProt P03372).
T1 sequence (P03372 whole entry): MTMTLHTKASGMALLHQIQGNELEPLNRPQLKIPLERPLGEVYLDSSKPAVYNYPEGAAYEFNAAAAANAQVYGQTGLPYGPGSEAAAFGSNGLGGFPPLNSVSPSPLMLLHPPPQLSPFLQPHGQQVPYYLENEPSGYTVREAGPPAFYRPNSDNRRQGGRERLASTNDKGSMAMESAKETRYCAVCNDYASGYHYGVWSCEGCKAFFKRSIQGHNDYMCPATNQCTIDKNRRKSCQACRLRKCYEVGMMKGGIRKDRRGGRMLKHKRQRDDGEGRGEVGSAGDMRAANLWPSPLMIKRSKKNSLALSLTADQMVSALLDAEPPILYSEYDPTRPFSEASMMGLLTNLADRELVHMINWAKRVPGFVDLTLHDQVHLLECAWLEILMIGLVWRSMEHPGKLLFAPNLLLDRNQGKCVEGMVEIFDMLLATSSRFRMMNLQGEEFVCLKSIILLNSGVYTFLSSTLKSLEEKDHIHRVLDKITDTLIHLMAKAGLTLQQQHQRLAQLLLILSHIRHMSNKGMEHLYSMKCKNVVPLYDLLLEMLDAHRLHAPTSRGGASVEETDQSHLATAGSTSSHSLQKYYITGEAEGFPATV

The target of experiment [1] is T2, Muscarinic acetylcholine receptor M1 (Homo sapiens, UniProt P11229).
T2 sequence (P11229 whole entry): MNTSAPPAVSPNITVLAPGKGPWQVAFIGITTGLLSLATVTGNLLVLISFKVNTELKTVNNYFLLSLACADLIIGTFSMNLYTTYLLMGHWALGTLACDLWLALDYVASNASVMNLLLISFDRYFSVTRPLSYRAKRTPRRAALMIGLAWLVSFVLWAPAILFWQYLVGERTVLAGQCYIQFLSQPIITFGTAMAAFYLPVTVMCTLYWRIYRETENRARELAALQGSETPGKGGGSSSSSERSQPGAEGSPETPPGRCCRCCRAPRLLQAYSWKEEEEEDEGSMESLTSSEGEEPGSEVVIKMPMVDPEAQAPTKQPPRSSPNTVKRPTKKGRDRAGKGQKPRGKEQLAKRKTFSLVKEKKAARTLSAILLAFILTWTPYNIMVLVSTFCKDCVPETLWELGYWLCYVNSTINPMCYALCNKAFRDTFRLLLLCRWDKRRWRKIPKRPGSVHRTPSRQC
It counts as functional, cell-based.

The target in experiment [2] is Vascular endothelial growth factor receptor 2 (Homo sapiens, UniProt P35968). It counts as functional.
Chain of Vascular endothelial growth factor receptor 2 (P35968 whole entry): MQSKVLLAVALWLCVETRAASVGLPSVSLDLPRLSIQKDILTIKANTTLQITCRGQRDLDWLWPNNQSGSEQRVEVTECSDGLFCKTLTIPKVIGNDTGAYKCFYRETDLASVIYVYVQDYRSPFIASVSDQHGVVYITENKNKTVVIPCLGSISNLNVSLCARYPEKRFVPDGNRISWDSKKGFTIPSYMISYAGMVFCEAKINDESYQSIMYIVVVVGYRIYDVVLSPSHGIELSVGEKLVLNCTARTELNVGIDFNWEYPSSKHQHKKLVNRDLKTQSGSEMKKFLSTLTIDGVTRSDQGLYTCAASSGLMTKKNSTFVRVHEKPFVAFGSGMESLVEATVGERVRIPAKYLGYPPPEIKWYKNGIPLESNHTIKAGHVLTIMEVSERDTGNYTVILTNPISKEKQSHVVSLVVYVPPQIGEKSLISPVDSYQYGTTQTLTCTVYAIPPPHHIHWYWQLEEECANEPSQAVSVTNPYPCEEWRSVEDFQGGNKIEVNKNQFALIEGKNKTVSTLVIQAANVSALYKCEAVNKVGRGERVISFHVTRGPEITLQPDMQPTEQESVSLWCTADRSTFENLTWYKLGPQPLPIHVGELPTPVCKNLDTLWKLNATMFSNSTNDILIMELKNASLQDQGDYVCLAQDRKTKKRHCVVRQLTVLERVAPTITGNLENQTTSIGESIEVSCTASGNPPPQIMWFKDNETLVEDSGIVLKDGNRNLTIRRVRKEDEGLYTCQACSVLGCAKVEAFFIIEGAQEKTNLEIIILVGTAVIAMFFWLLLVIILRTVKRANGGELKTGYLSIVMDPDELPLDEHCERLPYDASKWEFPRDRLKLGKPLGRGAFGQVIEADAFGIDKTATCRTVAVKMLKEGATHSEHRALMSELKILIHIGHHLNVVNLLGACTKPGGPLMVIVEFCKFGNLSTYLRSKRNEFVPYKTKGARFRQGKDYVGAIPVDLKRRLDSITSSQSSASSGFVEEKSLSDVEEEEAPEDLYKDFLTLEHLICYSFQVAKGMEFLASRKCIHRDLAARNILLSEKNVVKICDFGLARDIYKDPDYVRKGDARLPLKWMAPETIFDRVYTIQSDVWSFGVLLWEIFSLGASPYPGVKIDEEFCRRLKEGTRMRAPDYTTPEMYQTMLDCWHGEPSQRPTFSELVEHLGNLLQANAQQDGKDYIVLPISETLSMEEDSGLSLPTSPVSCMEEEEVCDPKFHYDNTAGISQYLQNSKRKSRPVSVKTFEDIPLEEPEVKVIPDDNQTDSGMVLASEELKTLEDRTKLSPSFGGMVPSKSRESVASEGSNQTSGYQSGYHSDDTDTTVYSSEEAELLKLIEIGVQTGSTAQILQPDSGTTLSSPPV

Molecules are shown by their SMILES. *1 amine or outer side, *2 acyl side, *3 side chain or, on linkers, in order; H or OH if unused. Where a SMILES comes first, the peptide text is derived from it. Bridges are numbered along the chain shown (N, C = ends). [ ]: non-standard residue; d: D form. The star is where a group is joined. hTyr(3S-OH,4S-OH,3'-OSO3H) = N[C@H](C(=O)O)[C@H](O)[C@@H](O)c1ccc(O)c(OS(=O)(=O)O)c1; Orn(4R-OH,5R-OH) = O=C([C@H](C[C@@H](O)[C@@H](O)N[*:3])N[*:1])[*:2]; Pro(3S-OH,4S-Me) = C[C@H]1CN[C@H](C(=O)O)[C@H]1O; X1 = CCCCCOc1ccc(-c2cc(-c3ccc(C(=O)*)cc3)no2)cc1; Gln(3R-OH) = NC(=O)C[C@@H](O)[C@H](N)C(=O)O; Hyp = O=C(O)[C@@H]1C[C@@H](O)CN1 Bounds are passed on as bounds.
Also: assay procedure not described here.

As to `CCCCCOc1ccc(-c2cc(-c3ccc(C(=O)N[C@H]4C[C@@H](O)[C@@H](O)NC(=O)[C@@H]5[C@@H](O)[C@@H](C)CN5C(=O)[C@H]([C@H](O)CC(N)=O)NC(=O)[C@H]([C@H](O)[C@@H](O)c5ccc(O)c(OS(=O)(=O)O)c5)NC(=O)[C@@H]5C[C@@H](O)CN5C(=O)[C@H]([C@@H](C)O)NC4=O)cc3)no2)cc1` [MICAFUNGIN] (X1-[Orn(4R-OH,5R-OH)]T[Hyp][hTyr(3S-OH,4S-OH,3'-OSO3H)][Gln(3R-OH)][Pro(3S-OH,4S-Me)]; lactam 1-C), the AC50 is 7.25 µM at Estrogen receptor, 9.05 µM in experiment [1] and over 30 µM in experiment [2].

For `CCOc1ccc2ccccc2c1C(=O)N[C@@H]1C(=O)N2[C@@H]1SC(C)(C)[C@@H]2C(=O)O` [NAFCILLIN], the concentration at half-maximal activity (AC50) (on Estrogen receptor; in experiment [1]; in experiment [2]) was over 30 µM in each case.

With `CCCCCCCCCCC[C@@H](C[C@@H]1OC(=O)[C@H]1CCCCCC)OC(=O)[C@H](CC(C)C)NC=O` [ORLISTAT], the half-maximal activity concentration (AC50) (on Estrogen receptor; in experiment [1]; in experiment [2]) was over 30 µM in each case.

With `O=C1[C@H]2CCCC[C@H]2C(=O)N1CCCCN1CCN(c2nsc3ccccc23)CC1` [PEROSPIRONE], the concentration at half-maximal activity (AC50) at Estrogen receptor is over 30 µM; in experiment [1], 10.3 µM; in experiment [2], over 30 µM.

As for `CC(C)(C)C(=O)NCCCC(=O)O` [PIVAGABINE], the half-maximal activity concentration (AC50) (at Estrogen receptor; in experiment [1]; in experiment [2]) was over 30 µM in each case.

`CC(C)[N+](C)(CCOC(=O)C1c2ccccc2Oc2ccccc21)C(C)C` [PROPANTHELINE]: the concentration at half-maximal activity (AC50) is over 30 µM on Estrogen receptor, 0.003 µM in experiment [1] and over 30 µM in experiment [2].

In the case of `CN(C)C(=O)c1nc(CNC(=O)CN)n(-c2ccc(Cl)cc2C(=O)c2ccccc2Cl)n1` [RILMAZAFONE], the AC50 (at Estrogen receptor; in experiment [1]; in experiment [2]) was over 30 µM in each case.

In the case of `NC(=O)NS(=O)(=O)c1ccc(N)cc1` [SULFACARBAMIDE], the half-maximal activity concentration (AC50) (on Estrogen receptor; in experiment [1]; in experiment [2]) was over 30 µM throughout.

With `NCCc1ccc(O)cc1` [TYRAMINE], the half-maximal activity concentration (AC50) (at Estrogen receptor; in experiment [1]; in experiment [2]) was over 30 µM each time.

Usually AC50 stands for the midpoint of the concentration-response curve, whichever way the signal moves. Low readings indicate greater potency, high ones weaker potency.

The record behind these values is ChEMBL document CHEMBL5291721, “A preclinical secondary pharmacology resource illuminates target-adverse drug reaction associations of marketed drugs” (Nat Commun, 2023).
